Reference: US4772603A, “Method for treating congestive heart failure, angina, occlusive peripheral vascular disease or cerebral vascular disease in mammals” (Beecham Group p.l.c., priority 1984, dated 1988)
Read-outs that look alike come from different tables or passages of the source.

Assays:
[1] = tested on: hypoxic skeletal muscle; assay: Effect of compounds on skeletal muscle oxygen tension in the rat (with reduction in mean arterial blood pressure); type: in vivo; settings: for CHANGE IN PO2 (average change in muscle PO2 produced by treatment) / REDUCTION IN MABP (Mean Arterial Blood Pressure): mean±S.D., 6 rats/treatment; for oxygen tension (PO2) in hypoxic skeletal muscle: at approximately a hypotensive dose
From the text: Values are mean±S.D.; 6 rats/treatment
MABP=Mean Arterial Blood Pressure
Change in PO2 =the average change in muscle PO2 produced by treatment

[2] = tested on: Rabbit isolated mesenteric artery; assay: Rabbit isolated mesenteric artery: inhibition of contractions due to 30 and 90 mM KCl; parameters: species or system rabbit (male New Zealand White)
Protocol: (2) Rabbit isolated mesenteric artery. Mesenteric arteries (3 mm rings) were removed from male New Zealand White rabbits and mounted, at a resting tension of 1.5-2.0 g, in a 10 ml organ bath containing a Ringer solution, at 37° C., of the following composition (mM): NaCl 120.8; KCl 5.9; CaCl2 2.5; MgCl2 1.2; HEPES 5.8; glucose 11.5. The bathing solution was bubbled with a 95% oxygen and 5% carbon dioxide mixture. Each preparation was allowed 1-11/2 h to equilibrate before the addition of either 30 or 90 mM KCl to contract the tissue. The ability of test compound to relax the sustained contraction due to KCl was determined by assessing the % reduction (mean±s.e.m.; 4-9 tissues) produced by varying concentrations of test compound.
IC50 is the concentration of compound 1 halving the contraction due to KCl; parenthesis indicate 95% fiducial limits.

[3] = tested on: Rat isolated portal vein; assay: Rat isolated portal vein: inhibition of spontaneous contractions and of contractions due to added calcium; parameters: species or system rat (male Sprague Dawley); settings: for IC50: Rattus norvegicus, 0.25 h, 15 min contact time
Protocol: (1) Rat isolated portal vein. Male Sprague Dawley rats (250-350 g) were killed by cervical dislocation. Portal veins (2-3 cm in length) were set up under 0.8-1 g tension in a 10 ml organ bath containing Krebs-Henseleit solution, at 37° C., of the following composition (mM): NaCl 118, NaHCO3 25, glucose 5, KH2 PO4 1.18, KCl 4.69, MgSO4 0.59, CaCl2 ·H2 O 1.87. The tissue was aerated with a 95% oxygen and 5% carbon dioxide mixture. Isometric tension was recorded using a Devices strain gauge and recorder. Each preparation was allowed 1h to equilibrate before the addition of test compound. The ability of a compound to inhibit the contractions due to added calcium (3 mM CaCl2) was determined in tissues bathed in Krebs-Henseleit solution containing 0.05 mM CaCl2 (in order to reduce spontaneous contractions). Then percentage inhibition (mean±s.e.m.; 6-9 tissues) of the amplitude of the spontaneous contractions, and contractions due to added calcium, was determined after 15 min contact time with test compound.
IC50 is concentration of compound reducing contractions by 50%; parenthesis indicate 95% fiducial limits.

| SMILES | CHANGE IN PO2 (average change in muscle PO2 produced by treatment) ([1]; 0.3 mg/kg intraduodenally) | REDUCTION IN MABP (Mean Arterial Blood Pressure) ([1]; 0.3 mg/kg intraduodenally) | oxygen tension (PO2) in hypoxic skeletal muscle [1] | antagonism of contractions due to a partially / fully depolarising concentration of potassium ([2]; 30 mM (partially) and 90 mM (fully depolarising) KCl) | IC50 ([2]; Oryctolagus cuniculus, read-out: IC50 90 mM KCl (concentration halving the contraction due to KCl)) | effect against a high concentration of KCl ([2]; high KCl (90 mM)) | IC50 ([3]; contractions due to added calcium (3 mM CaCl2), 0.05 mM CaCl2 Krebs-Henseleit, 95% fiducial limits (0.87-3.5), read-out: IC50 Ca^2+ (3 mM) (concentration reducing contractions by 50%)) | IC50 ([3]; spontaneous contractions, 95% fiducial limits (0.67-7.8), read-out: IC50 Spontaneous (concentration reducing contractions by 50%)) | inhibitor of spontaneous contractions and of those due to added calcium (comparison in words) ([3]; spontaneous versus added calcium contractions) | CHANGE IN PO2 (average change in muscle PO2 produced by treatment) ([1]; 1.0 mg/kg intraduodenally) | REDUCTION IN MABP (Mean Arterial Blood Pressure) ([1]; 1.0 mg/kg intraduodenally) |
| --- | --- | --- | --- | --- | --- | --- | --- | --- | --- | --- | --- |
| CC1(C)Oc2ccc(C#N)cc2[C@@H](N2CCCC2=O)[C@@H]1O (relative stereo) [Compound 1, 6-cyano-3,4-dihydro-2,2-dimethyl-trans-4-(2-oxo-1-pyrrolidinyl)-2H-benzo[b]pyran-3-ol] | +8.7 ± 2.3 TORR | 44 ± 4 MMHG | large increase | antagonises the contractions due to a partially, but not a fully, depolarising concentration of potassium | > 10000 nM | effectiveness | 150 nM | 120 nM | equipotent | – | – |
| CCN(C(C)=O)[C@@H]1c2cc(C#N)ccc2OC(C)(C)[C@H]1O (relative stereo) [Compound 2, trans-4-N-acetylethylamino-6-cyano-3,4-dihydro-2,2-dimethyl-2H-benzo[b]pyran-3-ol] | – | – | large increase | – | – | – | – | – | – | +8.2 ± 3.7 TORR | 36 ± 4 MMHG |
